Assay results reported in US20090036400A1, “Pharmaceutical Preparations for Treating the Consequences of Alcohol Abuse, Hepatitis, Pancreatitis, Alzheimer's Disease, Parkinson's Disease, Diabetes, Toxic Kidney Disease, Reperfusion Damage, Arteriosclerosis, and as an Antidote Against Environmental Toxins and Medicinal Intoxication” (priority 2004, published 2009).
Counter-ions that a name gives are not always drawn.

What follows are compounds tested against T1, cytochrome P450 2E1 (Rattus norvegicus, UniProt P05182) (assay: p-nitrophenol-hydroxylase activity determination (inhibiting constants)). Conditions: microsomal fraction of acetone-induced Sprague-Dawley rats; substrate p-nitrophenol; read-out: Ki (inhibiting constant).
T1 construct: from tissue
T1 sequence (P05182 whole entry): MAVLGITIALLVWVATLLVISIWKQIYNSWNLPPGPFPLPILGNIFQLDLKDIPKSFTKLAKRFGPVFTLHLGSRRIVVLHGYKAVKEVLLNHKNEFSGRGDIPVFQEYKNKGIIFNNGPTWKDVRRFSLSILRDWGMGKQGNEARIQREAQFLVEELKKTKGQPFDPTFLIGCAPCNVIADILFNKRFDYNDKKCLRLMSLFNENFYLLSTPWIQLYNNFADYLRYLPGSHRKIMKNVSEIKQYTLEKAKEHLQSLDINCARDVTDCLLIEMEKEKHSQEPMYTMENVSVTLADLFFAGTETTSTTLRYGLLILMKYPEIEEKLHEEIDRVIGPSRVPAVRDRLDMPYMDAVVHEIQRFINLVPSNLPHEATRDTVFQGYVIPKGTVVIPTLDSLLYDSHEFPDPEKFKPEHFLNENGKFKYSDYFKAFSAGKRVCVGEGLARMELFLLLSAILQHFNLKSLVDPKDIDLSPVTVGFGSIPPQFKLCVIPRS
Format: biochemical
Description: 8 male Sprague-Dawley rats were administered 5% acetone (v-v) in drinking water for 7 days, as described by M. H. Wang et al. in Arch. Biochem. Biophys. […] The preparation of the microsomal fraction is carried out based on the method published by Wang, P., Mason, P. S., Günderlich, F. G., in Arch. Biochem. Biophys.
p-Nitrophenol applies as a specific substrate for cytochrome P450 2E1.
`CCCCCCCCCCCCOP(=O)([O-])OCC[N+](C)(C)C` [Dodecylphosphorylcholine] showed a Ki of 0.45 µM.
`CCCCCCCCCCCCCCCCC(N)COP(=O)([O-])OCC[N+](C)(C)C` (racemic) [rac-1-O-phosphocholine-2-amino-octadecane-hydrochloride] showed a Ki of 2.25 µM.
Compound `CCCCCCCCCCCCCCCCOP(=O)([O-])OCC[N+](C)(C)C` [Hexadecylphosphocholine, reference compound] has a Ki of 0.6 µM.
